# *1 amine or outer side, *2 acyl side, *3 side chain or, on linkers, in order; H or OH if unused. Where a SMILES comes first, the peptide text is derived from it. Bridges are numbered along the chain shown (N, C = ends). [ ]: non-standard residue; d: D form. The star is where a group is joined. X1 = O=C1C[C@@H](C(=O)[*:2])N([*:1])C[C@H]1CS[C@@H]1CN2CCC1CC2; NMePhe(4-NMe2) = CN[C@@H](Cc1ccc(N(C)C)cc1)C(=O)O; Picolinoyl(3-OH) = O=C(c1ncccc1O)*; Phg = N[C@H](C(=O)O)c1ccccc1; dAbu = CC[C@@H](N)C(=O)O
# Tests used:
# [1] = Highest frequency of moderate liver toxicity observed during clinical trials, expressed as a percentage. [column '% BIOL' in source]; settings: human
# [2] = Highest frequency of acute liver toxicity observed during clinical trials, expressed as a percentage. [column '% AIGUE' in source]; settings: human
# [3] = human, serum
# [4] = human, serum; remark: listed apart in the source
# [5] = human
# [6] = human; remark: listed apart in the source
# [7] = human; remark: listed apart in the source
# [8] = human, serum, 4383 h
# [9] = human; remark: listed apart in the source
# [10] = human; remark: listed apart in the source
# [11] = human; remark: listed apart in the source
# [12] = human; remark: listed apart in the source
# [13] = human; remark: listed apart in the source
# [14] = human; remark: listed apart in the source
# 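Throughout, for Hepatotoxicity (association with vascular disease): count of indexed literature references reporting vascular liver injury in humans, e.g. peliosis hepatitis, hepatic veno-occlusive disease or Budd-Chiari syndrome.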
# 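Throughout, for Hepatotoxicity (benign tumour): value is a count of indexed literature references citing a benign tumour confirmed by histopathology.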
# 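Throughout, for Hepatotoxicity (choleostasis): human cholestatic liver injury, shown by histopathology or by peak ALT or AST elevation over alkaline phosphatase ratio below 2, value counts indexed literature reports.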
# 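Throughout, for Hepatotoxicity (chronic liver disease): chronic liver injury confirmed by histopathology or persistently raised serum aminotransferase activity beyond 6 months, value given as the count of indexed literature references.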
# 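Throughout, for Hepatotoxicity (cirrhosis): value is a count of indexed literature references reporting cirrhosis confirmed by histopathology.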
# 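Throughout, for Hepatotoxicity (cytolytic): human cytolytic liver injury, shown by histopathology or by a ratio above 5 of peak ALT or AST elevation to alkaline phosphatase elevation, value counts indexed references.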
# 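Throughout, for Hepatotoxicity (granulomatous hepatitis): value is a count of indexed literature references reporting granulomatous liver disease confirmed by histopathology.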
# 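Throughout, for Hepatotoxicity (malignant tumour): malignant tumour confirmed by histopathology, value gives the count of indexed literature references reporting it.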
# 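Throughout, for Hepatotoxicity (severe hepatitis): human clinical data: severe hepatitis, meaning potentially life-threatening liver failure or clinically observed cases, the value counts how many indexed literature references report it.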
# 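Throughout, for Hepatotoxicity (steatosis): steatosis confirmed by histopathology, value is the count of indexed references.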
Compound,Hepatotoxicity (moderate) [1],Hepatotoxicity (acute) [2],Hepatotoxicity (moderate) [3],Hepatotoxicity (acute) [4],Hepatotoxicity (cytolytic) [5],Hepatotoxicity (choleostasis) [6],Hepatotoxicity (severe hepatitis) [7],Hepatotoxicity (chronic liver disease) [8],Hepatotoxicity (cirrhosis) [9],Hepatotoxicity (granulomatous hepatitis) [10],Hepatotoxicity (association with vascular disease) [11],Hepatotoxicity (steatosis) [12],Hepatotoxicity (malignant tumour) [13],Hepatotoxicity (benign tumour) [14],Hepatotoxicity (moderate) ([1]; Liver),Hepatotoxicity (acute) ([2]; Liver),Hepatotoxicity (severe hepatitis) ([7]; Liver)
CC(CN1c2ccccc2Sc2ccccc21)N(C)C (stereo unspecified) [PROMETHAZINE],0%,0%,0,2,0,0,0,0,0,0,0,0,0,0,–,–,–
CCN(CC)CC(=O)Oc1ccc(NC(C)=O)cc1 [PROPACETAMOL],2.1%,0%,1,0,0,0,0,0,0,0,0,0,0,0,–,–,–
Cc1ccc2c(-c3ccccc3)nc(=O)n(C(C)C)c2c1 [PROQUAZONE],1.8%,0%,1,0,0,0,0,0,0,0,0,0,0,0,–,–,–
COCCCN1CCC(NC(=O)c2cc(Cl)c(N)c3c2OCC3)CC1 [PRUCALOPRIDE],5.9%,0%,1,0,0,0,0,0,0,0,0,0,0,0,–,–,–
Cc1oc(=O)oc1CN1CCN(c2cc3c(cc2F)c(=O)c(C(=O)O)c2n3C(C)S2)CC1 (stereo unspecified) [PRULIFLOXACIN],33.3%,0%,25,0,0,0,0,0,0,0,0,0,0,0,–,–,–
COC(=O)c1nc2cc(Cl)c3cccnc3c2o1 [QUAZOLAST],13%,0%,1,0,0,0,0,0,0,0,0,0,0,0,–,–,–
CCN(CC)CCS(=O)(=O)[C@@H]1CCN2C(=O)c3coc(n3)CC(=O)C[C@H](O)/C=C(C)/C=C/CNC(=O)/C=C/[C@@H](C)[C@@H](C(C)C)OC(=O)[C@@H]12.CC[C@H]1NC(=O)[C@@H](NC(=O)c2ncccc2O)[C@@H](C)OC(=O)[C@H](c2ccccc2)NC(=O)[C@@H]2CC(=O)[C@H](CS[C@@H]3CN4CCC3CC4)CN2C(=O)[C@H](Cc2ccc(N(C)C)cc2)N(C)C(=O)[C@@H]2CCCN2C1=O [QUINUPRISTIN/DALFOPRISTIN] ({Picolinoyl(3-OH)}-T[dAbu]P[NMePhe(4-NMe2)][X1][Phg]; ester 1-C),7.1%,0%,8,0,0,0,0,0,0,0,0,0,0,0,–,–,–
CC(Cc1ccccc1)(NC(=O)CN)c1ccccc1 (stereo unspecified) [REMACEMIDE],0.9%,0%,3,0,0,0,0,0,0,0,0,0,0,0,–,–,–
CCN1CCC[C@H]1CNC(=O)c1c(OC)ccc(Br)c1OC [REMOXIPRIDE],6.4%,0%,7,0,0,0,0,0,0,0,0,0,0,0,–,–,–
CCOc1cc(CC(=O)N[C@@H](CC(C)C)c2ccccc2N2CCCCC2)ccc1C(=O)O [REPAGLINIDE],–,–,1,0,0,0,–,0,0,0,0,0,0,0,1.5%,0%,0
CO[C@@H](/C(C)=C/C=C/C(C)=C/c1coc(C)n1)[C@@H](C)[C@@H]1C[C@H](O)[C@@]2(C)O[C@@H]2/C=C/[C@@H](C)[C@H]2C[C@H](CC(=O)O2)C[C@@H]2O[C@H]2C(=O)O1 [RHIZOXIN],7.3%,0%,1,0,0,0,0,0,0,0,0,0,0,0,–,–,–
CO[C@H]1/C=C/O[C@@]2(C)Oc3c(C)c(O)c4c(O)c(c5c(nc6cc(C)ccn65)c4c3C2=O)NC(=O)/C(C)=C\C=C\[C@H](C)[C@H](O)[C@@H](C)[C@@H](O)[C@@H](C)[C@H](OC(C)=O)[C@@H]1C [RIFAXIMIN],26.7%,0%,27,0,0,0,0,0,0,0,0,0,0,0,–,–,–
CC(N)C12CC3CC(CC(C3)C1)C2 (stereo unspecified) [RIMANTADINE],1.8%,0%,1,0,0,0,0,0,0,0,0,0,0,0,–,–,–
CCCCC(C)(O)C/C=C/[C@H]1[C@H](O)CC(=O)[C@@H]1CCCCCCCO (stereo partly specified) [RIOPROSTIL],10%,0%,1,0,0,0,0,0,0,0,0,0,0,0,–,–,–
